The numbers were not newly measured in patent US7759468B1, “Bioactive peptide-based probes” (priority 2003, dated 2010), which cites them from elsewhere.

The test system of the series is L. lactis ssp. lactis C2. To be noted: known / from the literature; cited from earlier work.

Regarding Glu-Glu [Glu-Glu peptide], the Inhibition of growth result is “potent inhibitor of growth”.
